In paper PMC4005788 (Nature medicine, 2013):

Tests used:
NG108-cl cells = experiment: Clomeleon assay of [Cl−]i in NG108-cl cells; assay type: cell-based
hERG channel = hERG channel (Homo sapiens, UniProt Q12809); experiment: hERG inhibition of tail current, automated patch-clamp; assay type: cell-based
KCC2 [1] = biological target: T1, KCC2 (Homo sapiens, UniProt Q9H2X9); experiment: Rb+ flux assay in X. laevis oocytes expressing KCC2; assay type: cell-based; settings: 200 nM pre-incubation, 45 min Rb+ influx, vs vehicle
T1 sequence (Q9H2X9 1-1139): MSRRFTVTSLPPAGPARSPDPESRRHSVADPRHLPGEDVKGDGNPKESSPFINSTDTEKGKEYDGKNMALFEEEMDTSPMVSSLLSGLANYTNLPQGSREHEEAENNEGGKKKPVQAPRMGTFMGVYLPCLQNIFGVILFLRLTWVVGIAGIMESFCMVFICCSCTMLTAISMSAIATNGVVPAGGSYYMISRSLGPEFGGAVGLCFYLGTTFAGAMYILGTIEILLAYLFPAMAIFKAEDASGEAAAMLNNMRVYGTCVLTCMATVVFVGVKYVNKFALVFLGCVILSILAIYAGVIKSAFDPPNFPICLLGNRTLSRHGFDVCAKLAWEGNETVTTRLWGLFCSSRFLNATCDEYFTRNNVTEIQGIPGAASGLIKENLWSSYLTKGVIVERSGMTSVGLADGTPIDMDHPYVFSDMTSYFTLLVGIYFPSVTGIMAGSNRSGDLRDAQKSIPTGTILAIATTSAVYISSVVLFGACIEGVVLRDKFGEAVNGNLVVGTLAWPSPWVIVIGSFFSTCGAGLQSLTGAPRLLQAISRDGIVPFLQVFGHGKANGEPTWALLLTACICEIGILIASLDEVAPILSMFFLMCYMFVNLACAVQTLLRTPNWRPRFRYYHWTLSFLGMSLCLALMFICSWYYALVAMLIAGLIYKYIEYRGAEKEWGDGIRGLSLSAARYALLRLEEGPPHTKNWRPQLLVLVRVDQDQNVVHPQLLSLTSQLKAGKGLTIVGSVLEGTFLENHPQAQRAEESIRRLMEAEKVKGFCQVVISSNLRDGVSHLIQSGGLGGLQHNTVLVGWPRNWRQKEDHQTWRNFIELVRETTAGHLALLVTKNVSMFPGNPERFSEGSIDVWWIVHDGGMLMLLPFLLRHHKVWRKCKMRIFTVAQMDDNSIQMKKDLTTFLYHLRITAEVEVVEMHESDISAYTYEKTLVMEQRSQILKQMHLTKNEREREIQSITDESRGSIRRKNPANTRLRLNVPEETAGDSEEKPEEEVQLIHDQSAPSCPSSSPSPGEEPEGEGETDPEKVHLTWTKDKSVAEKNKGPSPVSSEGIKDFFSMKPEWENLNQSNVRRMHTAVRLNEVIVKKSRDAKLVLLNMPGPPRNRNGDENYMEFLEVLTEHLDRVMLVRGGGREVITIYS

GABAA receptor = experiment: Evoked GABAA currents in SDH neurons with VU0240551; assay type: cell-based, rat; settings: acute application, 25 and 100 μM, in the presence of VU0240551
KCC2 [2] = biological target: T2, KCC2 (Rattus norvegicus, UniProt Q63633); experiment: Imaging of K+-driven Cl− transport; assay type: cell-based; settings: for increase of the rate of Cl− accumulation: 25 μM, 15 mM KCl
T2 sequence (Q63633 1-1116 isoform Q63633-2): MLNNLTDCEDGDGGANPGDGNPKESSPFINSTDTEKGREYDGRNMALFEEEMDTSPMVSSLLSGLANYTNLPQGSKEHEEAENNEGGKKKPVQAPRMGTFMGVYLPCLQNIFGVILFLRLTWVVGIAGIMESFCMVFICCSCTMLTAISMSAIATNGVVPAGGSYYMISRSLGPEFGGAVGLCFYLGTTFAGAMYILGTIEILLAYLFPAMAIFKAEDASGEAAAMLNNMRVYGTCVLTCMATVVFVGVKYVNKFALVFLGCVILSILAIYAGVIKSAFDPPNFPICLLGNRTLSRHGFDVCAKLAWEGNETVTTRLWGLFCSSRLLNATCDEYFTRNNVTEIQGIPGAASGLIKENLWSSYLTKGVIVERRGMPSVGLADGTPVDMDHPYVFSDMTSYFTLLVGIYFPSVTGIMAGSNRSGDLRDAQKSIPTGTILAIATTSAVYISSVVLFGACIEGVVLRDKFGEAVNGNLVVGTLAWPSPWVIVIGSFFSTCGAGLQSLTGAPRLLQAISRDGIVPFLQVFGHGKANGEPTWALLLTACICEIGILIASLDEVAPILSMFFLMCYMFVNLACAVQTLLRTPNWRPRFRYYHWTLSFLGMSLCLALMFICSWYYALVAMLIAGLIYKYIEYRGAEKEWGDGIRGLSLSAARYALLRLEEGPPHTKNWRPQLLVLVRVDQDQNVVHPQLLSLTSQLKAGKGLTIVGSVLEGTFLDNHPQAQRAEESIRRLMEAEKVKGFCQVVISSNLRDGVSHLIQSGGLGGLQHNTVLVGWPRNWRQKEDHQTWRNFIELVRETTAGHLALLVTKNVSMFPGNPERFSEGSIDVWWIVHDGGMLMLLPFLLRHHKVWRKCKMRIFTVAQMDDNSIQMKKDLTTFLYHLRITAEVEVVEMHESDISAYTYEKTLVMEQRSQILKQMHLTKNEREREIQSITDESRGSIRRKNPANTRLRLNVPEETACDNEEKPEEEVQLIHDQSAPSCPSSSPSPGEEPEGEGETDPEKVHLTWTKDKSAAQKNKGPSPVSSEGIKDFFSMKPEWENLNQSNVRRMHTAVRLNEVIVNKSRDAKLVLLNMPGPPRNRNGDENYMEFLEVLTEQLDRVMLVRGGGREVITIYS

[3] = biological target: recombinant α1β2γ2 GABAA receptors (Homo sapiens, UniProt P14867+P18507+P47870); experiment: GABAA receptor automated whole cell patch-clamp in CHO cells; assay type: cell-based; settings: 50 μM CLP257, CHO cells
Metabolite analyses = assay type: in vivo; settings: not shown
[4] = Pharmacokinetic analysis in rats; assay type: in vivo; settings: rat
PNI rats = experiment: Paw withdrawal threshold; assay type: in vivo, rat
[5] = system: superficial dorsal horn field responses; assay type: in vivo, rat; settings: local spinal 100 μM
KCC2 [6] = biological target: T2, KCC2; experiment: Cell surface biotinylation and immunoblot of KCC2 in BDNF-treated spinal slices; assay type: cell-based; settings: 100 μM, BDNF-pretreated slices
rat hepatoma H4IIE cells = experiment: Caspase-3 activation in H4IIE cells; assay type: cell-based; settings: 24-h exposure, up to 300 μM
[7] = system: superficial dorsal horn (SDH) neurons; experiment: Whole-cell recording of EGABA under Cl− load in superficial dorsal horn neurons; assay type: cell-based, rat; settings: 25 μM, BDNF-treated and PNI slices
[8] = system: 55 radioligand-receptor interactions; experiment: Radioligand competition binding screen, whole panel; settings: 10 μM CLP257, 55 interactions
other CCCs = experiment: Rb+ flux assay in X. laevis oocytes expressing other CCCs; assay type: cell-based; settings: 200 nM pre-incubation
HEK293-cl cells = experiment: Clomeleon assay of [Cl−]i in HEK293-cl cells; assay type: cell-based, Human; settings: HEK293-cl cells (no KCC2; express NKCC1, KCC1, KCC3, KCC4)
rats = experiment: Accelerating rotorod assay; assay type: in vivo, rat; settings: equipotent oral doses, 2 h post-dose
[9] = [Cl−]i reduction, clomeleon assay, 5 h exposure
[10] = 5 h, [Cl−]i reduction, clomeleon assay, 5 h exposure

Chain of hERG channel (Q12809 whole entry): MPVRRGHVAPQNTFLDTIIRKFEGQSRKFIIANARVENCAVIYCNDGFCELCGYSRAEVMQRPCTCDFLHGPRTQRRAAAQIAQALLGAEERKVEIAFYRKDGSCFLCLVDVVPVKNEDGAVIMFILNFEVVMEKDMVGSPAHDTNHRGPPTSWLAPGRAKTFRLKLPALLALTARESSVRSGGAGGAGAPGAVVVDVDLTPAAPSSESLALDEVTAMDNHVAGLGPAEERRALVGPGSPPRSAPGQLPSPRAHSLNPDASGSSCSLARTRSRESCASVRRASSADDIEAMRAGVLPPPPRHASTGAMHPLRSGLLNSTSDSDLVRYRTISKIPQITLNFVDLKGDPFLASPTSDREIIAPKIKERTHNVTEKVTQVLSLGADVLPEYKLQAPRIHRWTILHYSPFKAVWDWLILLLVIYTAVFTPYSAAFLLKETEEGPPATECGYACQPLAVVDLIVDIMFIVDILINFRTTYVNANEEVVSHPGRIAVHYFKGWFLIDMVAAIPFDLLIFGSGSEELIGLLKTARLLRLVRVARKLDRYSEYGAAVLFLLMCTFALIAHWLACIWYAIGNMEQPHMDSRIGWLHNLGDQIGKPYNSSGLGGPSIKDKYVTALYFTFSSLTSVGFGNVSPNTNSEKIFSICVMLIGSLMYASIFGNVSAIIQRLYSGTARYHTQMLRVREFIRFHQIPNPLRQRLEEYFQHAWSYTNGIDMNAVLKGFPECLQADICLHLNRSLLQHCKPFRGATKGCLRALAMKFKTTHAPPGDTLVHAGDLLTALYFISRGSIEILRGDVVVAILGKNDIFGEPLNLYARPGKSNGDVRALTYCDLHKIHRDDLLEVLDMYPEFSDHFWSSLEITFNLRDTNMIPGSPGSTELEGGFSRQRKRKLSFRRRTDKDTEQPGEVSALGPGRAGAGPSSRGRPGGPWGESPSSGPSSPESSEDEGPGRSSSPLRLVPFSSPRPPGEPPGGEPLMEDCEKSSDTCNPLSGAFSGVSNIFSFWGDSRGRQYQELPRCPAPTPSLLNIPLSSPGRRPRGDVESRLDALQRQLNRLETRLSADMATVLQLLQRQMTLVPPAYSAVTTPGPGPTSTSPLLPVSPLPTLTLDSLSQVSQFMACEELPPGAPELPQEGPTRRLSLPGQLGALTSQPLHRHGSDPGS
Chain of recombinant α1β2γ2 GABAA receptors (P14867 28-456): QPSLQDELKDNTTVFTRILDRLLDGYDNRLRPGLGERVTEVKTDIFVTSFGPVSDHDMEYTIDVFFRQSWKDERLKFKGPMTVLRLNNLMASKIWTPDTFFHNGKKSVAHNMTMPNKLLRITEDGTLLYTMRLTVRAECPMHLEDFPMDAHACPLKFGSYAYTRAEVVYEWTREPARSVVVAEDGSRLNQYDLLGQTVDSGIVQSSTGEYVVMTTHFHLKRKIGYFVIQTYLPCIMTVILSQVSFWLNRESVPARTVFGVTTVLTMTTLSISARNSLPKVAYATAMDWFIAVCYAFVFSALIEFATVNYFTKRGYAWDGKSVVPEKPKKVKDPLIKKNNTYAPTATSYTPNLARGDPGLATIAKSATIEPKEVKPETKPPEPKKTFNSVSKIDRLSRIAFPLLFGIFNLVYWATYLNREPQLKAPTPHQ
Chain of recombinant α1β2γ2 GABAA receptors (P47870 25-512 limits assumed): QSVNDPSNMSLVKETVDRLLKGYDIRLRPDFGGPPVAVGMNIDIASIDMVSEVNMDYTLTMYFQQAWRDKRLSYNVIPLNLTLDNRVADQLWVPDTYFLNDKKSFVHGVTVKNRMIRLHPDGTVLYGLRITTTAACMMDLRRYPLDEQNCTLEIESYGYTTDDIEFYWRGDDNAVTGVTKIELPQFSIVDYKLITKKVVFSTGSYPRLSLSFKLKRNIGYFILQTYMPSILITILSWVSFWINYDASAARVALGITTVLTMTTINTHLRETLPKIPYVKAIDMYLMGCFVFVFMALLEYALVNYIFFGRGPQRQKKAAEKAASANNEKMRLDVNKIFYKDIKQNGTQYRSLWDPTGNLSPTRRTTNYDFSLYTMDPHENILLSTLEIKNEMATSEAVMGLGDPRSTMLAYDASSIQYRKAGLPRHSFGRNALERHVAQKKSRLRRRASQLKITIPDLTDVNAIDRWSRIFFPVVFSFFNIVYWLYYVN
Chain of recombinant α1β2γ2 GABAA receptors (P18507 40-475): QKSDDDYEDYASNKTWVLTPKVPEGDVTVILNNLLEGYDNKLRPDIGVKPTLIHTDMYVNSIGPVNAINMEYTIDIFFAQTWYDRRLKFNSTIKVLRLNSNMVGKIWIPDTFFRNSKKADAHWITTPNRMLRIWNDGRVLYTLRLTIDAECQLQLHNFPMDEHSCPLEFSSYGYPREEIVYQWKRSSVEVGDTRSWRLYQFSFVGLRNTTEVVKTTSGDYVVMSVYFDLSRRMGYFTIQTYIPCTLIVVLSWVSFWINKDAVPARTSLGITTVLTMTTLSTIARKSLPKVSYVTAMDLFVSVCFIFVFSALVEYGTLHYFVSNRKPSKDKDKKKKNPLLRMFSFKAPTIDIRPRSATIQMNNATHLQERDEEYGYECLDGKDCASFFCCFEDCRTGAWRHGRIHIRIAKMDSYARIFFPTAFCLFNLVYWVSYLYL

O=C1N=C(N2CCCCC2)S/C1=C\c1ccccc1O [CL-058, (5Z)-5-[(2-hydroxyphenyl)methylidene]-2-(piperidin-1-yl)-4,5-dihydro-1,3-thiazol-4-one]
EC50 (NG108-cl cells; [9]): 31.5 µM

O=C1N=C(N2CCCCN2)S/C1=C\c1ccc(F)cc1O [CLP257, (5Z)-2-(1,2-diazinan-1-yl)-5-[(4-fluoro-2-hydroxyphenyl)methylidene]-4,5-dihydro-1,3-thiazol-4-one]
IC50 (hERG channel): 449 µM | increase of KCC2 transport activity (Rb+ influx) (KCC2 [1]): 61% | EC50 (NG108-cl cells; [10]): 0.616 µM | Maximal [Cl−]i reduction (NG108-cl cells; NG108-cl cells): ~ 40% | drop from resting [Cl−]i of 57 mM (NG108-cl cells; at maximal effect): 23 mM | effect on evoked GABAA currents (GABAA receptor): no effect | increase of the rate of Cl− accumulation (KCC2 [2]; BDNF-treated spinal slices): 26% | increase of the rate of Cl− accumulation (KCC2 [2]; PNI spinal slices): 45% | Cl− transport (KCC2 [2]; 100 μM, BDNF-treated slices): completely restored Cl^− transport to control levels | agonist effect relative to the effect of 5 μM muscimol [3]: < 0.2% | metabolism of the hydroxyl moiety (Metabolite analyses): rapidly undergoes glucuronidation | half-life ([4]; male, Sprague-Dawley, plasma): < 15 min | maximal analgesic effect compared with Gabapentin (PNI rats; IP): much weaker than that of Gabapentin | mechanical withdrawal thresholds (PNI rats; IP, peaking at 100 mg kg^−1, 2 h post-injection): increased withdrawal thresholds | evoked field responses ([5]; animals with nerve injury (PNI)): renormalized | effect on the stimulus-response relationship of evoked field responses ([5]; naïve animals, 2.5 to 135 g (mm^2)^−1): no effect | cell surface expression of KCC2 monomers and dimers (KCC2 [6]): increased | total KCC2 expression (KCC2 [6]): not significantly affected | Caspase-3 activation (rat hepatoma H4IIE cells): not detected | EGABA (reversal potential for GABAA currents) [7]: hyperpolarized | inhibition of radioligand-receptor interactions, maximum over the panel [8]: ≤ 30% | change of transport activity (Rb+ influx) in other CCCs (other CCCs): no change | change in [Cl−]i (HEK293-cl cells): no change

O=C1N=C(N2CCCCN2)S/C1=C\c1ccc(F)cc1OC(=O)N1CCCC1 [CLP290, 2-{[(5Z)-2-(1,2-diazinan-1-yl)-4-oxo-4,5-dihydro-1,3-thiazol-5-ylidene]methyl}-5-fluorophenyl pyrrolidine-1-carboxylate]
IC50 (hERG channel): 224 µM | maximal plasma concentration and exposure of CLP257 vs native CLP257 ([4]; analyte CLP257 after CLP290): improved maximal plasma concentration and exposure | motor function on accelerating rotorod (rats): no effect | maximal oral analgesic efficacy (PNI rats; PO, 100 mg kg^−1 vs Pregabalin 30 mg kg^−1): equivalent to that of Pregabalin

Oc1cc(F)ccc1/C=C1\SC(N2CCCCN2)=NC1=S [CLP355, (5Z)-2-(1,2-diazinan-1-yl)-5-[(4-fluoro-2-hydroxyphenyl)methylidene]-4,5-dihydro-1,3-thiazole-4-thione]
EC50 (NG108-cl cells; [10]): 0.05 µM

O=C1N=C(N2CCCCN2)S/C1=C\c1ccc(F)cc1OC1OC(C(=O)O)C(O)C(O)C1O (centres unmarked) [CLP386, 6-(2-{[(5Z)-2-(1,2-diazinan-1-yl)-4-oxo-4,5-dihydro-1,3-thiazol-5-ylidene]methyl}-5-fluorophenoxy)-3,4,5-trihydroxyoxane-2-carboxylic acid]
EC50 (μM) (NG108-cl cells; [9]): inactive

CC(C)C[C@H](CN)CC(=O)O [Pregabalin, reference compound]
motor function on accelerating rotorod (rats): depressed motor function

Cc1csc(NC(=O)CSc2ccc(-c3ccccc3)nn2)n1 [VU0240551, reference compound]
antagonism of the [Cl−]i response to CLP257 (NG108-cl cells; CLP257 500 nM, 5 h exposure): dose-dependent antagonism
